The subject of this experiment is COX enzymes (CT26 mouse colon adenocarcinoma cells). Put plainly: COX inhibition, PGE2 production in CT26 cells. It counts as cell-based. The source says:
In addition, the aromatic rings of the diphenylamine moiety were substituted with different electron donating or withdrawing groups. In a first screen, two parameters were checked: (a) the non-selective inhibition of COX-1/COX-2 enzyme activities, measured by the production of PGE2 in cultured mouse colon adenocarcinoma (CT26) and mouse Lewis lung carcinoma cells (D122) cells; (b) the M-channel activity, measured by the heterologous coexpression of Kv7.2 and Kv7.3 subunits in Chinese hamster ovary (CHO) cells.
Mouse colon adenocarcinoma CT26 and mouse Lewis lung carcinoma D122 cells were grown in DMEM (D122) or RPMI (CT26) supplemented with 10% fetal calf serum, 4% glutamine, 1% penicillin-streptomycin-nystatin and 3% non essential amino acids (D122) and maintained in a humidified 37°C incubator with 5% CO2. For the COX assays, cells were grown onto 24 multiwell plates. Before the assay, cells were washed with serum-free medium; then tested compounds were added to the medium and incubated for 30 min at 37°C after which 30 µM arachidonic acid was added and incubated for additional 20 min. At the end of the incubations, 10 µM indomethacin was added to stop the reaction and medium was transferred to another 24 multiwell plate for measuring PGE2 production by radioimmunoassay (DuPont-NEN; Boston, MA) according to manufacturer protocol. Protein determination was assayed on scraped cells and was used to normalize the amount of PGE2 production. Assays with purified ovine COX-1 and human recombinant COX-2 were performed using the COX inhibitor screening assay (Cayman chemical company, Ann Arbor, MI), according to manufacturer protocol.

Each structure is given as a SMILES string. Like-named read-outs stand apart in the source and are kept apart here.

In general, IC50 refers to the concentration that inhibits the measured activity by half. With `O=C(Cc1cc([N+](=O)[O-])ccc1Nc1c(Cl)cccc1Cl)OCCO` [Compound 15], the IC50 was determined as 0.048 µM (average of two experiments in triplicate, read-out: COX inhibition (IC50, µM) CT26) and 0.069 µM (read-out: COX inhibition IC50, typical experiment (Figure 1)).

(Values after PMC2131780, “A Tale of Switched Functions: From Cyclooxygenase Inhibition to M-Channel Modulation in New Diphenylamine Derivatives” (PLoS ONE, 2007).)
